Experimental data reported in ChEMBL document CHEMBL3227970, “The benzodiazepine story” (J Med Chem, 1979).
Several values for one entry are separate records, joined by “and”; a condition that tells them apart may be missing. Equal entries are not always repeated. Activity calls are given as the source filed them. The calls are words filed in the database; no cut-off is given here.

Tests used:
Mus musculus [1] = organism: Mus musculus; assay: Toxicity in mouse assessed as effect on central nervous system; assay type: organism-based; conditions: in vivo
Mus musculus [2] = assay: Induction of muscle relaxation/sedation in po dosed mouse by inclined screen test; assay type: functional
Mus musculus [3] = assay: Induction of taming effect in po dosed mouse by foot shock method; assay type: functional
Felis catus = assay: Muscle relaxing activity in po dosed cat; assay type: functional
Mus musculus [4] = assay: Anticonvulsant activity in po dosed mouse assessed as reduction of pentylenetetrazole-induced seizures; assay type: functional
Mus musculus [5] = assay: Anticonvulsant activity in po dosed mouse assessed as reduction of maximal electroshock-induced seizures; assay type: functional
Mus musculus [6] = assay: Anticonvulsant activity in po dosed mouse assessed as reduction of minimal electroshock-induced seizures; assay type: functional
Rhesus monkey = assay: Induction of taming effect in monkey by foot shock method; assay type: functional, organism-based; conditions: Macaca mulatta
Mus musculus [7] = organism: Mus musculus; assay: Toxicity in mouse; assay type: organism-based; conditions: in vivo

Row | Compound | Activity (Mus musculus [1]) | Activity (Mus musculus [2]) | Activity (Mus musculus [3]) | Activity (Felis catus) | Activity (Mus musculus [4]) | Activity (Mus musculus [5]) | Activity (Mus musculus [6]) | Activity (Rhesus monkey) | Activity (Mus musculus [7])
1 | COC(=O)[C@H]1[C@H]2C[C@@H]3c4[nH]c5cc(OC)ccc5c4CCN3C[C@H]2C[C@@H](OC(=O)c2cc(OC)c(OC)c(OC)c2)[C@@H]1OC [RESERPINE] | Toxic | – | – | – | – | – | – | – | –
2 | CNC1=Nc2ccc(Cl)cc2C(c2ccccc2)=[N+]([O-])C1.Cl [CHLORDIAZEPOXIDE HYDROCHLORIDE] | Non-toxic | 100 mg/kg | 40 mg/kg | 2 mg/kg | 18 mg/kg | 92 mg/kg | 150 mg/kg | Active | 620 mg/kg
3 | CN1C(=O)CN=C(c2ccccc2)c2cc(Cl)ccc21 [DIAZEPAM] | – | 75 mg/kg and 30 mg/kg | – | – | – | – | – | – | –
4 | O=C1C[N+]([O-])=C(c2ccccc2)c2cc(Cl)ccc2N1 [DEMOXEPAM] | – | 100 mg/kg | 20 mg/kg | 2 mg/kg | 15 mg/kg | 150 mg/kg | 150 mg/kg | – | –
5 | CN(C)CCCN1c2ccccc2Sc2ccc(Cl)cc21 [CHLORPROMAZINE] | Toxic | 17 mg/kg | 20 mg/kg | 2.5 mg/kg | 42 mg/kg | 150 mg/kg | 600 mg/kg | – | –
6 | CCC1(c2ccccc2)C(=O)NC(=O)NC1=O [PHENOBARBITAL] | – | 120 mg/kg | 80 mg/kg | 10 mg/kg | 75 mg/kg | 18 mg/kg | 90 mg/kg | – | –
7 | CCCC(C)(COC(N)=O)COC(N)=O [MEPROBAMATE] | – | 250 mg/kg | 250 mg/kg | 100 mg/kg | 150 mg/kg | 200 mg/kg | 167 mg/kg | – | –
